The source of these data is PMC9301601 (Frontiers in Pharmacology, 2022).

The subject of one data set is Hsp90. In words: Western blot of chaperone Hsp90 after 24 h incubation. It is filed as cell-based, human. The settings on record: LPV 1-20 μM.
The next data set has as its system hiPSC-CMs. In words: Action potential recording in hiPSC-CMs, whole-cell patch-clamp (current-clamp). It is filed as cell-based, human. The settings on record: for decrease of APD vs CTL / APD (APD90): 24-h incubation; for APD (APD90): CTL 364.4 ms, p < 0.0001, n = 14; for early after-depolarizations (EADs) during repolarization: transient effect, recorded within 1 hour. Background: Patch clamp records ionic current or voltage across a cell membrane.

Data set [1] concerns sodium or calcium channels (SLC8A1, CACNA1C, SCN5A). In words: RT-qPCR of cardiac ion channel genes in hiPSC-CMs: sodium or calcium channels. It is filed as cell-based, human. As to conditions: GAPDH housekeeping.
The subject of the next data set is SARS-CoV-2. On the set-up: method as in Lou et al., 2021. As to conditions: read-out: 50% effective inhibition concentration (EC50) against SARS-CoV-2; ref Lou et al., 2021; cited from earlier work.
The subject of a further data set is KCNQ1. In words: RT-qPCR of KCNQ1 in hiPSC-CMs. The format is cell-based, human. (In general: In qPCR the cycle at which signal appears reflects the starting amount.)
For a further data set, the system named is Hsp70. Kind of data set: Western blot of chaperone Hsp70 after 24 h incubation. It is filed as cell-based, human. The settings on record: LPV 1-20 μM, especially at 10 μM. (In general: In western blotting, separated proteins are transferred to a membrane and probed.)
In a further data set the test system is hERG potassium channel. On the set-up: method as in Szendrey et al., 2021. As to conditions: ref Szendrey et al., 2021; cited from earlier work.
The next data set deals with hERG. On the set-up: method as in Szendrey et al., 2021. The settings on record: when acting alone; ref Szendrey et al., 2021; cited from earlier work.
The next data set concerns ICaL. On the set-up: method as in Chen et al., 2020; Guo et al., 2021. The settings on record: as a sigma-1 receptor agonist; ref Chen et al., 2020; Guo et al., 2021; cited from earlier work.
The next data set relates to COVID-19. On the set-up: method as in Lenze et al., 2020. The settings on record: hospitalized patients with COVID-19, double-blind RCT; ref Lenze et al., 2020; cited from earlier work.
The subject of another data set is Ito. On the set-up: method as in Chen et al., 2020; Guo et al., 2021. The settings on record: as a sigma-1 receptor agonist; ref Chen et al., 2020; Guo et al., 2021; cited from earlier work.
Another data set deals with hERG protein. On the set-up: method as in Borsini et al., 2012. The settings on record: ref Borsini et al., 2012; cited from earlier work.
Setting [2] is: LPV-treated hiPSC-CMs, Figure 6H.
[3] abbreviates: FLV-treated hiPSC-CMs, Figure 6H.

In the case of `Cc1cccc(C)c1OCC(=O)N[C@@H](Cc1ccccc1)[C@@H](O)C[C@H](Cc1ccccc1)NC(=O)[C@H](C(C)C)N1CCCNC1=O` [LPV, lopinavir], the “expression levels of Hsp90” value with Hsp90 is reported as “significant reduction”. In addition, in the data set on hiPSC-CMs (10 μM LPV), the “decrease of APD vs CTL” value is 191.8 ms, the “APD (APD90)” value worked out at 172.6 ms and the “early after-depolarizations (EADs) during repolarization” value is recorded as “induce the occurrence of EADs”. Also, in the data set on hiPSC-CMs (setting [2]), the APD10 was 48.9 ± 10.3 ms, the APD30 worked out at 103.6 ± 11.2 ms, the “Amp (amplitude)” value is 103.8±6.1 mV and the “MDP (maximum diastolic potential)” value was -59.1±3.6 mV. Further, the “mRNA expression of sodium or calcium channels” value in data set [1] (10 μM LPV) is “did not significantly alter”. Further, in the data set on SARS-CoV-2, the EC50 is 1740 nM. In addition, the “level of KCNQ1 nucleic acid” value with KCNQ1 (chronic LPV administration) is recorded as “increased”. Moreover, in the data set on Hsp70, the “expression of Hsp70” value is recorded as “significantly increased”.

Take `CCC(CC)COC(=O)[C@H](C)N[P@](=O)(OC[C@H]1O[C@@](C#N)(c2ccc3c(N)ncnn23)[C@H](O)[C@@H]1O)Oc1ccccc1` [remdesivir]: the “effect on the hERG current (IhERG)” value with hERG potassium channel was “increased”. For the same compound, the hERG maturation result in the data set on hERG is given as “promoted hERG maturation”.

Consider `COCCCC/C(=N\OCCN)c1ccc(C(F)(F)F)cc1` [FLV, fluvoxamine], for which, in the data set with ICaL, the “effect on ICaL” value is “decreases”. Further, in the data set with COVID-19, the clinical deterioration rate result is “lower clinical deterioration rate”. Further, in the data set on hiPSC-CMs (3 μM FLV), the “decrease of APD vs CTL” value was 183.6 ms, the “APD (APD90)” value is given as 180.8 ms and the “early after-depolarizations (EADs) during repolarization” value is on record as “induce the occurrence of EADs”. Also, in the data set with hiPSC-CMs (setting [3]), the APD10 was 52.3 ± 8.8 ms, the “Amp (amplitude)” value came out at 99.2±9.7 mV and the “MDP (maximum diastolic potential)” value is listed as -51.8±8.3 mV. Moreover, the “mRNA expression of sodium or calcium channels” value in [1] (3 μM FLV) is “did not significantly alter”. Further, the “effect on Ito” value with Ito is on record as “enhances”. Moreover, the “level of KCNQ1 nucleic acid” value with KCNQ1 (chronic FLV administration) is on record as “increased”.

On to `CCN(CC)CCCC(C)Nc1ccnc2cc(Cl)ccc12` (stereo not shown) [chloroquine], for which, in the data set on hERG potassium channel, the “effect on the hERG current (IhERG)” value is “acutely and severely inhibited”. Further, the “trafficking of the hERG protein” value in the data set on hERG protein is “prompted the trafficking”.

As to `CCN(CCO)CCCC(C)Nc1ccnc2cc(Cl)ccc12` (stereo not shown) [hydroxychloroquine], the “effect on the hERG current (IhERG)” value in the data set with hERG potassium channel is “acutely and severely inhibited”.
